# Data taken from patent US5132291A, “Antivirals and methods for increasing the antiviral activity of AZT” (priority 1989, dated 1992).
# Where two headings read alike, the source gives them in different places.
# Columns and labels:
# [1] = test system: BAG vector pseudotyped by MA (amphotrophic murine leukemia virus); test: U937/BAG+MA colony resistance assay titered on 208F rat fibroblasts; type: cell-based; settings: 500 μM AICA riboside
# Protocol: A second, similar assay system was utilized in which a human macrophage line (U937) carrying the BAG retroviral vector construct (having neomycin resistance and beta-galactosidase marker genes), Cepko, PNAS, Vol. 84, p. 156-160 (1987), was infected with MA (amphotrophic MLV [murine leukemia virus]). MA was used to pseudotype the replication-defective BAG vector, which was then titered on 208F cells. According to this assay, the results of which are shown in FIG. 1c, 0.01 μM AZT and 500 μM AICA riboside were both effective against murine retroviruses. […]
# In this colony-forming bioassay for the characterization of antiviral compounds against retroviruses, a replication-defective retroviral vector construct having the ability to confer neomycin-resistance (U937/BAG or N2) is psuedotyped, infects a single cell, and under neomycin selection, allows the recipient cell to form a colony. Since each infection yields a neomycin-resistant cell capable of producing a discrete group of cells, colonies can be counted, resulting in a linear relationship between the number of colonies and the first order of virus concentration. […]
# After drying, the plates were stained with 2 ml of 1:20 Glemsa (Sigma) for 1 hour. […] All colonies containing 50 or more cells were scored.
# [2] = test system: Chinese hamster lung fibroblasts; settings: cited from earlier work
smiles,measurement,setting,value
"NC(=O)c1ncn([C@@H]2O[C@H](CO)[C@@H](O)[C@H]2O)c1N [AICA riboside, 5-amino-1-β-D-ribofuranosyl-imidazole-4-carboxamide]",effectiveness against murine retroviruses,[1],effective
same,expansion of the purine pool (ATP and GTP),[2]; 50 μM and 200 μM,about 40%
same,growth rate,"[2]; 50 μM and 200 μM, reversible by uridine",reduced growth rate
same,"drop in PRPP availability, measured by adenine incorporation",[2]; 50 μM,18%
same,"drop in PRPP availability, measured by adenine incorporation",[2]; 200 μM,82%
same,effect on cell growth,"[2]; 200 μM, reversed by uridine",arrested cell growth
same,cytotoxicity,[2]; 700 μM,no cytotoxicty
same,UTP and CTP pools,[2],decreased by a factor of approximately ten
